Test results reported in US8853260B2, “Formulations of pharmacological agents, methods for the preparation thereof and methods for the use thereof” (priority 1997, dated 2014).

Key:
[1] = Blood kinetics following multiple intravenous dose levels of Capxol; type: in vivo, rat
Method: Blood was collected from the tail vein and the AUC0-24 was calculated. At 24 hours, blood samples were collected; extracted, and the extract injected on HPLC to determine the level of parent compound in the blood.

[2] = system: patients with breast cancer, non-Hodgkin's lymphoma or ovarian cancer; conditions: cited from earlier work
[3] = system: ovarian cancer and breast cancer; conditions: 250 mg/m^2/21 days; cited from earlier work

CC(=O)O[C@H]1C(=O)[C@@]2(C)[C@H]([C@H](OC(=O)c3ccccc3)[C@]3(O)C[C@H](OC(=O)[C@H](O)[C@@H](NC(=O)c4ccccc4)c4ccccc4)C(C)=C1C3(C)C)[C@]1(OC(C)=O)CO[C@@H]1C[C@@H]2O [paclitaxel]
level of parent compound in blood after 24 hours ([1]; 9 mg/kg dose, given as Capxol): 0.04 ppm
increase of parent compound level after 24 hours, factor ([1]; from the 9 mg/kg dose to the 148 mg/kg dose): 8.5
MTD ([2]; 24 hour infusion, combined with cyclophosphamide 5,625 mg/m^2 and cisplatin 165 mg/m^2, AHPCS): 775 mg/m^2
partial response ([2]; patients with breast cancer, combination with cyclophosphamide and cisplatin): 54%
objective response rate [3]: 35.9%
